# Earlier results in patent EP4684794A1, “TECHNICAL FORMULATION FOR ACTIVE ABSORPTION OF AMINO ACIDS BY HUMAN REPRODUCTIVE SYSTEM” (Xu, Haohan, priority 2023, dated 2024).
# Columns and labels:
# [1] = system: MC3T3-E1 osteoblasts; details: platelet-derived growth factor-BB, SAPK/JNK pathway
# [2] = system: bone marrow macrophages; details: blocking the NF- κ B and MAPK signaling pathways
smiles,measurement,setting,value
"O=C(O[C@@H]1Cc2c(O)cc(O)cc2O[C@@H]1c1cc(O)c(O)c(O)c1)c1cc(O)c(O)c(O)c1 [EGCG, epigallocatechin gallate]",expression of IL-6 and IL-6 mRNA,[1],reducing the expression of IL-6 and IL-6 mRNA
same,LPS-mediated pro-inflammatory gene expression,[2],may prevent LPS-mediated pro-inflammatory gene expression
same,teratogenic or developmental toxicity,animal experiments,no teratogenic or developmental toxicity was observed
same,genotoxicity,mouse body fluid analyses,no genotoxic effects
